Data from publication PMC6154719 (Molecules : A Journal of Synthetic Chemistry and Natural …, 2017).

Tests used:
Format in all cases: in vitro ADME
NQO1 = target: T1, NQO1 (Rattus norvegicus, UniProt P05982); test: NQO1 activity in rat liver subcellular fraction; conditions: 100 µM sesquiterpene, control 25.3 ± 5.6
T1 construct: Frozen liver (both rat and human) was thawed; from tissue; host or cells: rat liver cytosolic fraction
T1 sequence (P05982 2-274 limits assumed): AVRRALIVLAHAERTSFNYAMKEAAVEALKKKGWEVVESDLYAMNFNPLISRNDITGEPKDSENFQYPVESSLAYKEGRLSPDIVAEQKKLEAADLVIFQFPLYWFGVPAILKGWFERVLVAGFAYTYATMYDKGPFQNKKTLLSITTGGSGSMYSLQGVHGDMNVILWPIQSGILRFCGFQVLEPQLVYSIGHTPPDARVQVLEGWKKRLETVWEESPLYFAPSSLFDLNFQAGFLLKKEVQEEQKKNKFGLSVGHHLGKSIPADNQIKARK
Method: (§1) Enzyme activities were assayed in human and rat liver cytosolic and microsomal fractions. The enzyme assays (each performed in 4–8 replicates) were repeated three times (HPLC measurement of CYP activities was repeated only twice, Table 3). Inhibition studies were carried out by incubation of specific substrates in the presence of sesquiterpenes (in the range 0–100 µM).
(§2) The assays of all other enzymes were based on spectrophotometric detection of product formed or detection of decreasing substrate/cofactor levels using microplate reader Tecan Infinite M200 in cytosolic or microsomal fractions. Enzyme activities were determined using slight modifications of previously-published methods: carbonyl reducing enzymes (AKR1A, AKR1C, CBR1 [45], NQO1 [46]), UDP-glucuronosyltransferase (UGT [47]), sulfotransferase (SULT [48]), and cytosolic glutathione-S-transferase (GST [49]).
(§3) Sesquiterpenes CNER, TNER and FAR, non-volatile liquids, were pipetted, and proper concentration was calculated according to density. All compounds were dissolved in DMSO. The final solvent concentration in the inhibition assays was 1%, which had no effect on the enzyme activity (data not shown). Non-enzymatic interference of sesquiterpenes with some compounds in the reaction mixtures (e.g., fluorescence enhancing or quenching) was considered and excluded. All experiments were performed in three replicates, if not stated otherwise.
(§4) CNER, TNER and FAR at a fixed concentration of 100 µM were screened for inhibition of cytosolic AKR1A1, AKR1C, CBR1, NQO1, SULT, and GST, and microsomal CYPs and UGT. The degree of inhibition caused by sesquiterpenes was compared with non-inhibited control reactions, which contained solvent without sesquiterpenes.

CBR1 = target: T2, CBR1 (Homo sapiens, UniProt P16152); test: CBR1 activity in human liver subcellular fraction; conditions: 100 µM sesquiterpene, control 6.62 ± 1.84
T2 construct: Frozen liver (both rat and human) was thawed; from tissue; host or cells: human liver cytosolic fraction
T2 sequence (P16152 1-277): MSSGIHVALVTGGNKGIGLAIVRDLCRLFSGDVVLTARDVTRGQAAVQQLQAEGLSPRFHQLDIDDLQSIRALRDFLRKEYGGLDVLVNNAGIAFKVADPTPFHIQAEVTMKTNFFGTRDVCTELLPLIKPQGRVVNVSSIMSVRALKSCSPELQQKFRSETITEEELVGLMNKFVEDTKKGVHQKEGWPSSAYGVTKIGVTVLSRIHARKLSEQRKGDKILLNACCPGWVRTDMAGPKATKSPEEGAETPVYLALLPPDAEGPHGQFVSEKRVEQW
Method: as §1, §2, §3, §4

AKR1C = AKR1C activity in human liver subcellular fraction; conditions: 100 µM sesquiterpene, control 23.5 ± 2.4
Method: as §1, §2, §3, §4

CYP2B/3A = CYP2B/3A (BROD activity, benzyloxyresorufin O-debenzylation) in rat liver microsomes; conditions: for IC50: probe benzyloxyresorufin; for Specific Activity, CYP2B/3A (BROD activity): in the presence of 100 µM sesquiterpene, control 1.74 ± 0.02
Method: as §1
Enzyme activities of individual CYP forms were measured according to established protocols. The following microsomal CYP activities were tested: CYP2A6, coumarin 7-hydroxylation; CYP2B6, 7-ethoxy-4-(trifluoromethyl)coumarin 7-deethylation, CYP2C9, diclofenac 4′-hydroxylation, CYP2C19 assay, S-mephenytoin 4′-hydroxylation, CYP2D6 on bufuralol 1′-hydroxylation, CYP2E1, chlorzoxazone 6-hydroxylation and CYP3A4, testosterone 6β-hydroxylation, and midazolam 1′-hydroxylation. Activities were measured using the Prominence HPLC system (Shimadzu, Kyoto, Japan), equipped with a LiChroCART 250-4 LiChrospher 100 RP-18 column or Chromolith®HighResolution RP-18 end-capped column (Merck, Darmstadt, Germany) and UV or fluorescence detection, according to the cited literature. Further incubation details are described either in the corresponding references, as well as in the papers from this laboratory e.g., [42, 43, 44]. CYP1A2, 7-ethoxyresorufin O-deethylation, and CYP3A4/2B6 (human), CYP2B1 (rat), benzyloxyresorufin O-debenzylation were measured using the microplate reader Tecan Infinite M200 (Tecan Group; Mannedorf, Switzerland).
as §3, §4
The concentration of sesquiterpenes required for 50% inhibition of enzyme activity, the IC50 value, was determined. Their final concentrations in the reaction mixture were proposed to cover the entire inhibitory range of these compounds (1–100 µM). The IC50 values for each sesquiterpene were determined by plotting sigmoidal dose response curves of specific enzyme activity vs. logarithm of sesquiterpene concentration using GraphPad Prism version 6.07 for Windows (GraphPad Software Inc., La Jolla, CA, USA).
The kinetic inactivation study of the CYP1A2 (EROD activity) and CYP2B/3A (BROD activity), both in rat and human, with TNER, was performed to find out the mechanism of enzyme inhibition by this sesquiterpene. Mechanism of EROD and BROD inhibition was tested at the final ethoxyresorufin or benzyloxyresorufin concentrations 0.5–5.0 µM. The concentration of TNER was 5.0 µM.
Experimental data were fitted to the Michaelis-Menten equation, basic kinetic parameters were determined using the program GraphPad Prism version 6.07 for Windows. The type of inhibition was estimated using a Lineweaver-Burk (double-reciprocal) plot.

AKR1A = target: T3, AKR1A (Homo sapiens, UniProt P14550); test: AKR1A activity in human liver subcellular fraction; conditions: 100 µM sesquiterpene, control 8.45 ± 0.90
T3 construct: Frozen liver (both rat and human) was thawed; from tissue; host or cells: human liver cytosolic fraction
T3 sequence (P14550 1-325): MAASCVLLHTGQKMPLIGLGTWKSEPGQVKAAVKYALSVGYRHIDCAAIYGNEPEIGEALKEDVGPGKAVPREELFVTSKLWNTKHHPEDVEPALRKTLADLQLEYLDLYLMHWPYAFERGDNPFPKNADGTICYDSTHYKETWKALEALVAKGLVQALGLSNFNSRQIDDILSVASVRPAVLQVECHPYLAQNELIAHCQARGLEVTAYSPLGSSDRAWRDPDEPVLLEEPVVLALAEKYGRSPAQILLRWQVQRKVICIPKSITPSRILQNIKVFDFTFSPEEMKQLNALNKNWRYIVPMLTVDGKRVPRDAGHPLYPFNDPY
Method: as §1, §2, §3, §4

Structure (SMILES) | Specific activity, NQO1 (NQO1) | Specific activity, CBR1 (CBR1) | Specific activity, AKR1C (AKR1C) | IC50 (CYP2B/3A; rat liver microsomes) | Specific Activity, CYP2B/3A (BROD activity) (CYP2B/3A; rat liver microsomes) | Specific activity, AKR1A (AKR1A) | K’M (CYP2B/3A; rat liver microsomes, benzyloxyresorufin 0.5–5.0 µM in the presence of TNER 5 µM, KM without TNER 0.74 ± 0.12) | V’MAX (CYP2B/3A; rat liver microsomes, benzyloxyresorufin 0.5–5.0 µM in the presence of TNER 5 µM, VMAX without TNER 7.04 ± 0.35) | type of inhibition, BROD activity (CYP2B/3A; rat microsomes, 5 µM TNER, benzyloxyresorufin 0.5–5.0 µM)
C=CC(C)(O)CC/C=C(/C)CCC=C(C)C (stereo not drawn) [CNER, cis-nerolidol] | 21.7 ± 3.6 nmol/mg/min | 7.17 ± 0.56 nmol/mg/min | 22.7 ± 1.5 nmol/mg/min | 6.47 µM | 0.331 ± 0.009 pmol/mg/min | 6.88 ± 0.29 nmol/mg/min | – | – | –
CC(C)=CCC/C(C)=C/CC/C(C)=C/CO [FAR, farnesol] | 22.2 ± 3.3 nmol/mg/min | 6.83 ± 0.70 nmol/mg/min | 24.0 ± 1.5 nmol/mg/min | 4.43 µM | 0.212 ± 0.003 pmol/mg/min | 7.62 ± 0.30 nmol/mg/min | – | – | –
C=CC(C)(O)CC/C=C(\C)CCC=C(C)C (stereo not drawn) [TNER, trans-nerolidol] | 21.8 ± 2.4 nmol/mg/min | 5.67 ± 0.67 nmol/mg/min | 21.4 ± 1.0 nmol/mg/min | 5.11 µM | 0.153 ± 0.008 pmol/mg/min | 6.75 ± 0.22 nmol/mg/min | 1.26 ± 0.39 µM | 0.81 ± 0.09 nM/min | non-competitive
